# Source: patent US12377094B2, “Therapeutic compositions and methods for treating checkpoint inhibitor-resistant tumors using plinabulin-based combination therapies” (BeyondSpring Pharmaceuticals, Inc., priority 2021, dated 2025)
# Experiment: Dose-escalation Phase I study of nivolumab, ipilimumab and plinabulin: safety (DLT, RP2D, treatment-related AEs, irAEs)
# Format: in vivo, human
# Details: with nivolumab 1 mg/kg and ipilimumab 3 mg/kg, IV day 1 of 21 day cycle; dose-level 2
# Text: In a dose-escalation Phase I study, patients with recurrent extensive-stage small cell lung cancer (SCLC) who had progressed on prior platinum-based chemotherapy were enrolled using a 3+3 design. The primary objective was to determine dose-limiting toxicities (DLT's) and recommended Phase 2 dose (RP2D). Patients were evaluable for DLT if they received at least two cycles of therapy; DLT period was defined as the first six weeks. Secondary endpoints were ORR, PFS and frequency of irAEs. Correlative analysis included inflammatory biomarkers: hsCRP, ESR, SAA and haptoglobin.
# Patients received nivolumab (1 mg/kg), ipilimumab (3 mg/kg) and plinabulin (as per dose escalation schema) IV on day 1 of each 21 day cycle. After completion of 4 cycles, patients continued therapy with nivolumab (240 mg) and plinabulin every 2 weeks till progression or intolerable toxicity. Patients were evaluable for DLT if they received at least 2 cycles of therapy; DLT period was defined as the first 6 weeks from C1D1.
structure (smiles),measurement,value
"CC(C)(C)c1[nH]cnc1/C=c1\[nH]c(=O)/c(=C/c2ccccc2)[nH]c1=O [plinabulin, (3Z,6Z)-3-Benzylidene-6-{[5-(2-methyl-2-propanyl)-1H-imidazol-4-yl]methylene}-2,5-piperazinedione]",recommended Phase 2 dose (RP2D) of plinabulin,30 mg/m2
